Data from PMC11994644, “In vivo quantification of [^11C]BIO-1819578 in non-human primates, a novel radioligand for O-GlcNAcase” (Journal of Cerebral Blood Flow & Metabolism, 2025).
Entries after “also recorded” stand apart in the source; their conditions may differ.

What was measured:
OGA = settings: cited from earlier work
O-GlcNAcase (OGA) = assay: OGA occupancy after pretreatment with Thiamet-G (revisited Lassen plot); type: in vivo, cynomolgus monkey

occupancy (O-GlcNAcase (OGA); Thiamet-G 10 mg/kg i.v. 45 minutes prior to PET, 2TCM, one NHP) [%] | SMILES | Kd (OGA) [nM] | effect of pretreatment on [^11C]BIO-1819578 distribution volume (VT) (O-GlcNAcase (OGA); Thiamet-G 10 mg/kg i.v., NHP 3)
 | CC(=O)Nc1ncc(CN2CCC[C@H](N(C)c3ccc(F)cn3)C2)s1 [BIO-1819578] | 2.3 | 
97.6 | CCN=C1N[C@@H]2[C@@H](O)[C@H](O)[C@@H](CO)O[C@@H]2S1 [Thiamet-G] |  | reduced the distribution volume in all brain regions; also recorded: decreased in all regions
